Laboratory results from ChEMBL document CHEMBL2413072, “Synthesis and in vitro anticancer studies of novel C-2 arylidene congeners of lantadenes” (2013).

Tests used:
Assay type in all cases: functional
SR = assay: Growth inhibition of human SR cells by sulforhodamine B assay
U-251 [1] = assay: Growth inhibition of human U251 cells assessed as cell growth at 10^-8 M by sulforhodamine B assay; conditions: read-out: Activity
HCT-15 = assay: Growth inhibition of human HCT15 cells assessed as cell growth at 10^-8 M by sulforhodamine B assay; conditions: read-out: Activity
CCRF-CEM = assay: Growth inhibition of human CCRF-CEM cells assessed as cell growth at 10^-8 M by sulforhodamine B assay; conditions: read-out: Activity
SK-OV-3 [2] = assay: Growth inhibition of human SKOV3 cells by sulforhodamine B assay
SK-MEL-5 = assay: Growth inhibition of human SK-MEL-5 cells by sulforhodamine B assay
MDA-MB-435 = assay: Growth inhibition of human MDA-MB-435 cells by sulforhodamine B assay
Malme-3M [3] = assay: Growth inhibition of human MALME-3M cells by sulforhodamine B assay
SF-539 = assay: Growth inhibition of human SF539 cells by sulforhodamine B assay
SNB-19 [4] = assay: Growth inhibition of human SNB19 cells by sulforhodamine B assay
SK-OV-3 [5] = assay: Growth inhibition of human SKOV3 cells assessed as cell growth at 10^-4 M by sulforhodamine B assay; conditions: read-out: Activity
OVCAR-5 = assay: Growth inhibition of human OVCAR5 cells assessed as cell growth at 10^-4 M by sulforhodamine B assay; conditions: read-out: Activity
IGROV-1 = assay: Growth inhibition of human IGROV1 cells assessed as cell growth at 10^-4 M by sulforhodamine B assay; conditions: read-out: Activity
SK-MEL-28 = assay: Growth inhibition of human SK-MEL-28 cells assessed as cell growth at 10^-4 M by sulforhodamine B assay; conditions: read-out: Activity
U-251 [6] = assay: Growth inhibition of human U251 cells assessed as cell growth at 10^-4 M by sulforhodamine B assay; conditions: read-out: Activity
SNB-75 [7] = assay: Growth inhibition of human SNB75 cells assessed as cell growth at 10^-4 M by sulforhodamine B assay; conditions: read-out: Activity
SNB-19 [8] = assay: Growth inhibition of human SNB19 cells assessed as cell growth at 10^-4 M by sulforhodamine B assay; conditions: read-out: Activity
SF-295 = assay: Growth inhibition of human SF295 cells assessed as cell growth at 10^-4 M by sulforhodamine B assay; conditions: read-out: Activity
A549 = assay: Growth inhibition of human A549/ATCC cells assessed as cell growth at 10^-4 M by sulforhodamine B assay; conditions: read-out: Activity
ACHN = assay: Growth inhibition of human ACHN cells assessed as cell growth at 10^-6 M by sulforhodamine B assay; conditions: read-out: Activity
[9] = Growth inhibition of human NCI-ADR-RES cells assessed as cell growth at 10^-6 M by sulforhodamine B assay; conditions: read-out: Activity
OVCAR-8 = assay: Growth inhibition of human OVCAR8 cells assessed as cell growth at 10^-6 M by sulforhodamine B assay; conditions: read-out: Activity
OVCAR-3 = assay: Growth inhibition of human OVCAR3 cells assessed as cell growth at 10^-6 M by sulforhodamine B assay; conditions: read-out: Activity
UACC-62 = assay: Growth inhibition of human UACC62 cells assessed as cell growth at 10^-6 M by sulforhodamine B assay; conditions: read-out: Activity
Malme-3M [10] = assay: Growth inhibition of human MALME-3M cells assessed as cell growth at 10^-6 M by sulforhodamine B assay; conditions: read-out: Activity
SW-620 [11] = assay: Growth inhibition of human SW620 cells assessed as cell growth at 10^-6 M by sulforhodamine B assay; conditions: read-out: Activity
COLO 205 [12] = assay: Growth inhibition of human COLO205 cells assessed as cell growth at 10^-6 M by sulforhodamine B assay; conditions: read-out: Activity
NCI-H522 = assay: Growth inhibition of human NCI-H522 cells assessed as cell growth at 10^-6 M by sulforhodamine B assay; conditions: read-out: Activity
MDA-MB-468 = assay: Growth inhibition of human MDA-MB-468 cells assessed as cell growth at 10^-7 M by sulforhodamine B assay; conditions: read-out: Activity
MCF7 = assay: Growth inhibition of human MCF7 cells assessed as cell growth at 10^-7 M by sulforhodamine B assay; conditions: read-out: Activity
RXF 393 = assay: Growth inhibition of human RXF393 cells assessed as cell growth at 10^-7 M by sulforhodamine B assay; conditions: read-out: Activity
SK-OV-3 [13] = assay: Growth inhibition of human SKOV3 cells assessed as cell growth at 10^-7 M by sulforhodamine B assay; conditions: read-out: Activity
SNB-75 [14] = assay: Growth inhibition of human SNB75 cells assessed as cell growth at 10^-7 M by sulforhodamine B assay; conditions: read-out: Activity
SW-620 [15] = assay: Growth inhibition of human SW620 cells assessed as cell growth at 10^-7 M by sulforhodamine B assay; conditions: read-out: Activity
KM12 = assay: Growth inhibition of human KM12 cells assessed as cell growth at 10^-7 M by sulforhodamine B assay; conditions: read-out: Activity
[16] = Growth inhibition of human HCC2998 cells assessed as cell growth at 10^-7 M by sulforhodamine B assay; conditions: HCC 2998, read-out: Activity
COLO 205 [17] = assay: Growth inhibition of human COLO205 cells assessed as cell growth at 10^-7 M by sulforhodamine B assay; conditions: read-out: Activity
NCI-H23 = assay: Growth inhibition of human NCI-H23 cells assessed as cell growth at 10^-7 M by sulforhodamine B assay; conditions: read-out: Activity
HOP-62 = assay: Growth inhibition of human HOP62 cells assessed as cell growth at 10^-7 M by sulforhodamine B assay; conditions: read-out: Activity
HL-60(TB) = assay: Growth inhibition of human HL-60(TB) cells assessed as cell growth at 10^-7 M by sulforhodamine B assay; conditions: read-out: Activity
[18] = Growth inhibition of human Hs 578T cells assessed as cell growth at 10^-8 M by sulforhodamine B assay; conditions: read-out: Activity
[19] = read-out: LC50 (the source's name)
[20] = read-out: pLC50 (the source's name) (converted)

Work on `CC(C)=CC(=O)O[C@@H]1CC(C)(C)C[C@H]2C3=CC[C@@H]4[C@@]5(C)CCC(=O)C(C)(C)[C@@H]5CC[C@@]4(C)[C@]3(C)CC[C@@]12C(=O)O` yielded a GI50 (SR; read-out: GI50) of 3.75 µM, a CC50 (SR; [19]) of over 100 µM and a TGI (SR; read-out: TGI) of 33.8 µM. For the same compound, the GI50 (SR; read-out: pGI50 (converted)) was 3.72 µM, the CC50 (SR; [20]) was over 100 µM and the TGI (SR; read-out: pTGI (converted)) was 33.9 µM. For the same compound, the growth at 0.01 µM (U-251 [1]) was 92%, the growth at 0.01 µM (HCT-15) was 93% and the growth at 0.01 µM (CCRF-CEM) was 104%. The GI50 (SK-OV-3 [2]; read-out: GI50) was 16.6 µM, the CC50 (SK-OV-3 [2]; [19]) was over 100 µM and the TGI (SK-OV-3 [2]; read-out: TGI) was over 100 µM. The GI50 (SK-OV-3 [2]; read-out: pGI50 (converted)) was 16.6 µM, the CC50 (SK-OV-3 [2]; [20]) was over 100 µM and the TGI (SK-OV-3 [2]; read-out: pTGI (converted)) was over 100 µM. The GI50 (SK-MEL-5; read-out: GI50) was 1.5 µM, the CC50 (SK-MEL-5; [19]) was 46.2 µM and the TGI (SK-MEL-5; read-out: TGI) was 11.7 µM. For the same compound, the GI50 (SK-MEL-5; read-out: pGI50 (converted)) was 1.51 µM, the CC50 (SK-MEL-5; [20]) was 45.7 µM and the TGI (SK-MEL-5; read-out: pTGI (converted)) was 11.7 µM. For the same compound, the GI50 (MDA-MB-435; read-out: GI50) was 6.22 µM, the CC50 (MDA-MB-435; [19]) was over 100 µM and the TGI (MDA-MB-435; read-out: TGI) was over 100 µM. For the same compound, the GI50 (MDA-MB-435; read-out: pGI50 (converted)) was 6.17 µM, the CC50 (MDA-MB-435; [20]) was over 100 µM and the TGI (MDA-MB-435; read-out: pTGI (converted)) was over 100 µM. It also gave a GI50 (Malme-3M [3]; read-out: GI50) of 11.4 µM, a CC50 (Malme-3M [3]; [19]) of over 100 µM and a TGI (Malme-3M [3]; read-out: TGI) of 81 µM. The GI50 (Malme-3M [3]; read-out: pGI50 (converted)) was 11.5 µM, the CC50 (Malme-3M [3]; [20]) was over 100 µM and the TGI (Malme-3M [3]; read-out: pTGI (converted)) was 81.3 µM. The GI50 (SF-539; read-out: GI50) was 4.75 µM, the CC50 (SF-539; [19]) was over 100 µM and the TGI (SF-539; read-out: TGI) was 24.2 µM. It also gave a GI50 (SF-539; read-out: pGI50 (converted)) of 4.79 µM, a CC50 (SF-539; [20]) of over 100 µM and a TGI (SF-539; read-out: pTGI (converted)) of 24 µM. It also gave a GI50 (SNB-19 [4]; read-out: GI50) of 4.25 µM, a CC50 (SNB-19 [4]; [19]) of over 100 µM and a TGI (SNB-19 [4]; read-out: TGI) of over 100 µM. It also gave a GI50 (SNB-19 [4]; read-out: pGI50 (converted)) of 4.27 µM, a CC50 (SNB-19 [4]; [20]) of over 100 µM and a TGI (SNB-19 [4]; read-out: pTGI (converted)) of over 100 µM. The growth at 100 µM (SK-OV-3 [5]) was 15%, the growth at 100 µM (OVCAR-5) was -39% and the growth at 100 µM (IGROV-1) was -23%. It also gave a growth at 100 µM (SK-MEL-28) of 6%, a growth at 100 µM (U-251 [6]) of -49% and a growth at 100 µM (SNB-75 [7]) of -31%. For the same compound, the growth at 100 µM (SNB-19 [8]) was 7%, the growth at 100 µM (SF-295) was -59% and the growth at 100 µM (A549) was -41%. It also gave a growth at 1 µM (ACHN) of 73%, a growth at 1 µM [9] of 85% and a growth at 1 µM (OVCAR-8) of 79%. The growth at 1 µM (OVCAR-3) was 84%, the growth at 1 µM (UACC-62) was 73% and the growth at 1 µM (Malme-3M [10]) was 91%. For the same compound, the growth at 1 µM (SW-620 [11]) was 83%, the growth at 1 µM (COLO 205 [12]) was 103% and the growth at 1 µM (NCI-H522) was 82%. It also gave a growth at 0.1 µM (MDA-MB-468) of 89%, a growth at 0.1 µM (MCF7) of 90% and a growth at 0.1 µM (RXF 393) of 94%. It also gave a growth at 0.1 µM (SK-OV-3 [13]) of 106%, a growth at 0.1 µM (SNB-75 [14]) of 90% and a growth at 0.1 µM (SW-620 [15]) of 97%. The growth at 0.1 µM (KM12) was 85%, the growth at 0.1 µM [16] was 96% and the growth at 0.1 µM (COLO 205 [17]) was 103%. The growth at 0.1 µM (NCI-H23) was 90%, the growth at 0.1 µM (HOP-62) was 97% and the growth at 0.1 µM (HL-60(TB)) was 93%. It also gave a growth at 0.01 µM [18] of 96%.
